Activity data for 3 compounds are collected here from ChEMBL document CHEMBL2429821, “A Casein kinase 1/Checkpoint kinase 1 pyrazolo-pyridine protein kinase inhibitor as novel activator of the p53 pathway” (Bioorg Med Chem Lett, 2013).

The target of assay [1] is T1, Serine/threonine-protein kinase Chk1 (Homo sapiens) (UniProt O14757).
T1 sequence (whole entry): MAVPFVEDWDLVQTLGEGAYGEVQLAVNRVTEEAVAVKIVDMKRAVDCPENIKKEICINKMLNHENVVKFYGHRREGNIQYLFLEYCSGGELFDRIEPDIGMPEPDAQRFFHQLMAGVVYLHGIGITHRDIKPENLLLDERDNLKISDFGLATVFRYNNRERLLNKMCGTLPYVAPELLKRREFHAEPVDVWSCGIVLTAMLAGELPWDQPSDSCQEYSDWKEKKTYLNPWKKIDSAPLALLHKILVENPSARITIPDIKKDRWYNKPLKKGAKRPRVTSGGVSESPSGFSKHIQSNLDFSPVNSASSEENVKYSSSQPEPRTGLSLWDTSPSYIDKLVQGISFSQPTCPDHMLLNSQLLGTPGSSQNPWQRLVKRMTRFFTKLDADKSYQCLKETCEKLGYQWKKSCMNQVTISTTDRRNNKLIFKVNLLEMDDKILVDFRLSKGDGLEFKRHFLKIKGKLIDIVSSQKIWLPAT
The assay can be described thus: Inhibition of human CHK1 assessed as residual activity at 10 uM relative to control.

Assay [2] deals with Tyrosine-protein kinase CSK (Homo sapiens) (UniProt P41240). The assay can be described thus: Inhibition of human CSK assessed as residual activity at 1 uM relative to control.
Assay [3] deals with T2, Serine/threonine-protein kinase Nek2 (Homo sapiens) (UniProt P51955).
T2 sequence (whole entry): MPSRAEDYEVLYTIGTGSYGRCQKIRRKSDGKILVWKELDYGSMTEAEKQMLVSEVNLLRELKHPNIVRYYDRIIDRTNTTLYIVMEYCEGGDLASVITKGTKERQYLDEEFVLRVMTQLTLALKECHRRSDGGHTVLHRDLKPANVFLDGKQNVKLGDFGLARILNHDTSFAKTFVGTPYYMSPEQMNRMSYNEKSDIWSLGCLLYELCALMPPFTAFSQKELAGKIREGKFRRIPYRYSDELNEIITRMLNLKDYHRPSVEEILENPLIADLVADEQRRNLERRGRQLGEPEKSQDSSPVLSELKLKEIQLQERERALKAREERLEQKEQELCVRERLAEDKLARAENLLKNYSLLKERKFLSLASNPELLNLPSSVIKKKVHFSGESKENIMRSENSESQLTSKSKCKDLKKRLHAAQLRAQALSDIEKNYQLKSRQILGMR
The experiment in a line: Inhibition of human NEK2alpha assessed as residual activity at 1 uM relative to control.

Assay [4] deals with Mitogen-activated protein kinase 9 (Homo sapiens) (UniProt P45984). The experiment in a line: Inhibition of human JNK2 assessed as residual activity at 10 uM relative to control.
The target of assay [5] is Casein kinase I isoform delta (Rattus norvegicus) (UniProt Q06486). The experiment in a line: Inhibition of rat CK1delta assessed as residual activity at 1 uM relative to control.
The target of assay [6] is Aurora kinase B (Homo sapiens) (UniProt Q96GD4). The experiment in a line: Inhibition of human Aurora-B assessed as residual activity at 10 uM relative to control.
Assay [7] deals with T3, MAP kinase-activated protein kinase 5 (Homo sapiens) (UniProt Q8IW41).
T3 sequence (whole entry): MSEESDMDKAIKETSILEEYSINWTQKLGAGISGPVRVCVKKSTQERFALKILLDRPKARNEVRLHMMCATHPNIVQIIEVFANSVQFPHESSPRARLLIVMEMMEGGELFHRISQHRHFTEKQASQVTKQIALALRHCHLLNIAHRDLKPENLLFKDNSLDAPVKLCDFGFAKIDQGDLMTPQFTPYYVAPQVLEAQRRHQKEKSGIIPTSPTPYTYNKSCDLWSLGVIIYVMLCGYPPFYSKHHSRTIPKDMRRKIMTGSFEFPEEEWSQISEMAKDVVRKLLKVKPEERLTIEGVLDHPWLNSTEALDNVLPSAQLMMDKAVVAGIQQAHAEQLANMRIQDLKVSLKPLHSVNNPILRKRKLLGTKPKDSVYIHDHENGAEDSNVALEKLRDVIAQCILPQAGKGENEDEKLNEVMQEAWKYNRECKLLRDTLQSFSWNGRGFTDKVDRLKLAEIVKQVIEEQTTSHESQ
The experiment in a line: Inhibition of human PRAK assessed as residual activity at 10 uM relative to control.

For assay [8], the target named is Homeodomain-interacting protein kinase 2 (Homo sapiens) (UniProt Q9H2X6). The assay can be described thus: Inhibition of human HIPK2 assessed as residual activity at 10 uM relative to control.
In assay [9] the target is RAC-alpha serine/threonine-protein kinase (Homo sapiens) (UniProt P31749). The assay can be described thus: Inhibition of human PKBalpha assessed as residual activity at 1 uM relative to control.
Assay [10] deals with T4, Serine/threonine-protein kinase TBK1 (Homo sapiens) (UniProt Q9UHD2).
T4 sequence (whole entry): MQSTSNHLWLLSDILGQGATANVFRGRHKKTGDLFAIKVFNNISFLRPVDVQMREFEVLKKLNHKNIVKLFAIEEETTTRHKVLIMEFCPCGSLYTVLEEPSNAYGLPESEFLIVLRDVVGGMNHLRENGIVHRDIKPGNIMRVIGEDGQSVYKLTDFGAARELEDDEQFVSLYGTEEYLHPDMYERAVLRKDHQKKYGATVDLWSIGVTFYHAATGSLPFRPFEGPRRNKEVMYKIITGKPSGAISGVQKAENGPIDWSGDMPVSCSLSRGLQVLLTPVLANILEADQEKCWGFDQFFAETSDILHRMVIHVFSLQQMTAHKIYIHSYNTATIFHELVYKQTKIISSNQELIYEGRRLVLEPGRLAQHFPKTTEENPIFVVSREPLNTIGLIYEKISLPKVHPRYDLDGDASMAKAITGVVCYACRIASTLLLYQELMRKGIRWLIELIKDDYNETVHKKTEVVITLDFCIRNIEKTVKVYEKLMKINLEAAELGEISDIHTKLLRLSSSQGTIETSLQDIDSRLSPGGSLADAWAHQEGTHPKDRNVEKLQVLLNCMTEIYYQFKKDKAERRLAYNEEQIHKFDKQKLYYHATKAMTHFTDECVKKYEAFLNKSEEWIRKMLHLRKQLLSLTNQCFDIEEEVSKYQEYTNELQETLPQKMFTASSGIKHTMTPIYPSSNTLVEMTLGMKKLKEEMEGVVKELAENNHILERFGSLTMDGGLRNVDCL
The assay can be described thus: Inhibition of human TBK1 assessed as residual activity at 10 uM relative to control.

For assay [11], the target named is RAC-beta serine/threonine-protein kinase (Homo sapiens) (UniProt P31751). The assay can be described thus: Inhibition of human PKBbeta assessed as residual activity at 1 uM relative to control.
For assay [12], the target named is Protein kinase C alpha type (Homo sapiens) (UniProt P17252). The experiment in a line: Inhibition of human PKCalpha assessed as residual activity at 10 uM relative to control.
Assay [13] has as its target 3-phosphoinositide-dependent protein kinase 1 (Homo sapiens) (UniProt O15530). The experiment in a line: Inhibition of human PDK1 assessed as residual activity at 1 uM relative to control.
Assay [14] concerns the target RAC-alpha serine/threonine-protein kinase (Homo sapiens) (UniProt P31749). The assay can be described thus: Inhibition of human PKBalpha assessed as residual activity at 10 uM relative to control.

Chain of 3-phosphoinositide-dependent protein kinase 1 (Homo sapiens) (O15530 whole entry, looked up): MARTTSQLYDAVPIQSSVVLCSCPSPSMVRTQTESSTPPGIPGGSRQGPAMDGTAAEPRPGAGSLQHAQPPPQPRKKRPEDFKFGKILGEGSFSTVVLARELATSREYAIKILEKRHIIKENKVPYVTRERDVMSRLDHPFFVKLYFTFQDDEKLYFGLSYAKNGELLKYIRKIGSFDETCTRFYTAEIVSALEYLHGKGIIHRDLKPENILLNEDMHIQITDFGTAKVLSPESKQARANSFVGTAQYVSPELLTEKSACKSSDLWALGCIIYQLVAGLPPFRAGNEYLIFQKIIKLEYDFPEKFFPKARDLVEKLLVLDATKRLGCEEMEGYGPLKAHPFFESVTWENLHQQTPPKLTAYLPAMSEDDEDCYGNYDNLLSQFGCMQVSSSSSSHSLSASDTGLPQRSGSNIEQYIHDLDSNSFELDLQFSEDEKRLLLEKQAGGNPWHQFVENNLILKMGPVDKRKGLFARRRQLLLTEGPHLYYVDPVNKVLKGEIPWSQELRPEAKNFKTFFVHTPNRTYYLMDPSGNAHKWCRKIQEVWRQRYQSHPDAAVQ
Chain of RAC-alpha serine/threonine-protein kinase (Homo sapiens) (P31749 whole entry): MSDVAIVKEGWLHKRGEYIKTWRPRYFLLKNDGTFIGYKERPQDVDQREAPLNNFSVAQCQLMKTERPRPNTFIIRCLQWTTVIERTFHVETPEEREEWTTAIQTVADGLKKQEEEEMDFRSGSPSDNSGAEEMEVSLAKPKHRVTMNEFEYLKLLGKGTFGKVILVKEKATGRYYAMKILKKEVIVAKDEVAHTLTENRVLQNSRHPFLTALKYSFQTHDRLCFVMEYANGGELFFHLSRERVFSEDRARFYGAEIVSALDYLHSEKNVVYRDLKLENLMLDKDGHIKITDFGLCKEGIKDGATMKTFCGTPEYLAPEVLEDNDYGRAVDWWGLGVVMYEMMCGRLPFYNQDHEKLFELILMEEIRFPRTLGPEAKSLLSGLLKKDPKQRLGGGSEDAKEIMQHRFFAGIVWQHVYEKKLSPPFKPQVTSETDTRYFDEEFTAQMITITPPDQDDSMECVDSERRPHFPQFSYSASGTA
Chain of Mitogen-activated protein kinase 9 (Homo sapiens) (P45984 whole entry, looked up, canonical isoform): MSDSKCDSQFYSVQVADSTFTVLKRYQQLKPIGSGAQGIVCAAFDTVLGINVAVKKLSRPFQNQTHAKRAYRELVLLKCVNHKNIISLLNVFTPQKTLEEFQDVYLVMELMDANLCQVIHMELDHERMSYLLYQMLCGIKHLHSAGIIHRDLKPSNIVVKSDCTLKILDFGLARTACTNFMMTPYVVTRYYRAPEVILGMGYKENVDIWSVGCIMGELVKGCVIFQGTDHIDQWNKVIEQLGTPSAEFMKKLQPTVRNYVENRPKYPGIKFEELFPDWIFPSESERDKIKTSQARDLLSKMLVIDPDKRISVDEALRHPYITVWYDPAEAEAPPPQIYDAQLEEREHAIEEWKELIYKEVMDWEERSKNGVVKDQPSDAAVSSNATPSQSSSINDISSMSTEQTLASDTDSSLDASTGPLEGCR
Chain of Casein kinase I isoform delta (Rattus norvegicus) (Q06486 whole entry, looked up, canonical isoform): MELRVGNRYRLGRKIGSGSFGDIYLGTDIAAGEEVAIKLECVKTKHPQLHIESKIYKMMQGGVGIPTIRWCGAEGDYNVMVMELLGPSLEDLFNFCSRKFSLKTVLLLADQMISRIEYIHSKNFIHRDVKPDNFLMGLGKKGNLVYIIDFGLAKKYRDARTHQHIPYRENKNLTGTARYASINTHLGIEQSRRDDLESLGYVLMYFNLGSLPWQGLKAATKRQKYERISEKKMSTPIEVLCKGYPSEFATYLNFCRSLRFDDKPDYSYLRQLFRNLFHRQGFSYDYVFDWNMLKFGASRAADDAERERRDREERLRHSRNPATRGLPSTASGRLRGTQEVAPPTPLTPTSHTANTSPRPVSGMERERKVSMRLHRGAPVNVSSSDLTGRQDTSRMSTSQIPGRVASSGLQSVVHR
Chain of RAC-beta serine/threonine-protein kinase (Homo sapiens) (P31751 whole entry): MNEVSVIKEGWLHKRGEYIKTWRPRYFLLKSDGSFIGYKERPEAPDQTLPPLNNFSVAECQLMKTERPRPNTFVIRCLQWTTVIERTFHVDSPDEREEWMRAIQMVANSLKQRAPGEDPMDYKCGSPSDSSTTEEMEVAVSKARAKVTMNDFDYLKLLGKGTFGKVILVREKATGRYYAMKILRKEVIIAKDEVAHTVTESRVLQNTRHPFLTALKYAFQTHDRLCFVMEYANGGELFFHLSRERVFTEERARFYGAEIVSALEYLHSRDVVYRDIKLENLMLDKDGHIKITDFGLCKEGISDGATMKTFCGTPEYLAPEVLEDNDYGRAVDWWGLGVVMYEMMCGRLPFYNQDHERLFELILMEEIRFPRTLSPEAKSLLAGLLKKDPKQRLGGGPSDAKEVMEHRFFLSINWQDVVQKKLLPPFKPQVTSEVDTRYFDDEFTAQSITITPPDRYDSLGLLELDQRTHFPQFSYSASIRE
Chain of Tyrosine-protein kinase CSK (Homo sapiens) (P41240 2-450 limits assumed): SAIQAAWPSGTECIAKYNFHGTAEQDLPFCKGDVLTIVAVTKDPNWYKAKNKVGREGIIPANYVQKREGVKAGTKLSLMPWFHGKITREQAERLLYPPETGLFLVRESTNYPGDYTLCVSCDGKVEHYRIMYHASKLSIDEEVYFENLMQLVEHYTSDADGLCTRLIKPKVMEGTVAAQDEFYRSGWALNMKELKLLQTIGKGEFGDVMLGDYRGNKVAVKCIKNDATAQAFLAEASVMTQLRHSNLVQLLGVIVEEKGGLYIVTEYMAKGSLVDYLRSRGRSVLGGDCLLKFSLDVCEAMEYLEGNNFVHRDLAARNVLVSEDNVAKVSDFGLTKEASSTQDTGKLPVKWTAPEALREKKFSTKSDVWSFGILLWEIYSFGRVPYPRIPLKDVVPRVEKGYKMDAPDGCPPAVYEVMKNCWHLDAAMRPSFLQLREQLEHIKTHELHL
Chain of Aurora kinase B (Homo sapiens) (Q96GD4 whole entry): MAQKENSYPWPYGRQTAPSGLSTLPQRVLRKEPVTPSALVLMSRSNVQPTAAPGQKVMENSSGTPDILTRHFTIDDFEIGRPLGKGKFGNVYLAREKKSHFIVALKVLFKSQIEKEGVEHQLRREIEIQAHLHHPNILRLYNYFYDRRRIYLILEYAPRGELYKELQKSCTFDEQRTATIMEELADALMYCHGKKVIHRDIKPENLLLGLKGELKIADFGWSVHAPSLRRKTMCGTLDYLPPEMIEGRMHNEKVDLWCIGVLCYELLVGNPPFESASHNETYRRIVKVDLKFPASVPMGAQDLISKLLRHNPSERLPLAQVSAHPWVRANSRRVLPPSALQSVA
Chain of Homeodomain-interacting protein kinase 2 (Homo sapiens) (Q9H2X6 whole entry, looked up): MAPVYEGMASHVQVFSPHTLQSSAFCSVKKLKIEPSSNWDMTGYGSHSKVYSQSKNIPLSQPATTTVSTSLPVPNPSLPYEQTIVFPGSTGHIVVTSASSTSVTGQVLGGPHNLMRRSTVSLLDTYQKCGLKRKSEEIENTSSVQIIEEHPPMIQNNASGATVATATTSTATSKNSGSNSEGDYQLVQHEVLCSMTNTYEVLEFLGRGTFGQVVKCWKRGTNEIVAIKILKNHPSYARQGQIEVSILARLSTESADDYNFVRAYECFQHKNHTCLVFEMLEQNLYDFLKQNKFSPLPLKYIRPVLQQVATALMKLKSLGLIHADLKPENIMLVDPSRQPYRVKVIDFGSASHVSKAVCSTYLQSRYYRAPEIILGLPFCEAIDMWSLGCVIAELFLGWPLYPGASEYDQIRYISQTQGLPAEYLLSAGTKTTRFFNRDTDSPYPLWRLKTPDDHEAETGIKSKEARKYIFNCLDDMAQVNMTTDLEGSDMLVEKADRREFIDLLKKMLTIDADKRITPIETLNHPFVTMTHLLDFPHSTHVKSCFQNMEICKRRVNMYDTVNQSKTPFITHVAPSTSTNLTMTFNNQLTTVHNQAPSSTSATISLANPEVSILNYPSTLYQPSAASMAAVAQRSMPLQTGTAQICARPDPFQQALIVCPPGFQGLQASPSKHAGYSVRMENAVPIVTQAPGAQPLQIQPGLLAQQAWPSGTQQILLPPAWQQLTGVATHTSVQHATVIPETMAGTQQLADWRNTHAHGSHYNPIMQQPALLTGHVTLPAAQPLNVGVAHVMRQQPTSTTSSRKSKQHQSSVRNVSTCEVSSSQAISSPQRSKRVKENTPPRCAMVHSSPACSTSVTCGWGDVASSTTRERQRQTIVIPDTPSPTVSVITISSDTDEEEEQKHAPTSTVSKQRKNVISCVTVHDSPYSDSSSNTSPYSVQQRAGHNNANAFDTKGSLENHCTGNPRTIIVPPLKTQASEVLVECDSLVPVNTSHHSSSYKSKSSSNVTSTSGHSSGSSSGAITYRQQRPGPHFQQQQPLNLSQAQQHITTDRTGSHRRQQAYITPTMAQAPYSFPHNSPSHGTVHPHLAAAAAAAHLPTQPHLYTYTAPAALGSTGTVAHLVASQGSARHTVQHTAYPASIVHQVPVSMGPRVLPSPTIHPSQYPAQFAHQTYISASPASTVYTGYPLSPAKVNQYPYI

Regarding `CC(=O)Nc1cccc(-c2cnc3[nH]nc(C)c3c2)c1`, the Activity in assay [1] amounted to 4.34%; in assay [2] it was 95.3%; in assay [3], 53.5%; in assay [4], 70.9%; in assay [5] it was 32.7%; in [6] it was 85.1%. Moreover, the Activity in assay [7] came to 89.4%; in assay [8], 42.4%; in assay [9], 89.5%; in assay [10], 48.2%; in [11], 94.6%; in assay [12] it was 104%. In addition, the figures for the Activity in [13] and in [14] were 95.8% and 51.1%, respectively.

In the case of `CC(=O)Nc1nccc(-c2c(-c3ccccc3)noc2C)n1`, the Activity came to 105% in assay [1]; 93.4% in [2]; 85.8% in assay [3]; 23.4% in assay [4]; 44.4% in assay [5]; 93% in assay [6]. In addition, the Activity in [7] turned out to be 83.7%; in assay [8], 94.2%; in [9], 112%; in assay [10], 105%; in [11], 89.7%; in assay [12] it was 99.9%. Besides, the results for the Activity in [13] and in [14] were 91.4% and 115%, respectively.

Regarding `CCCC(=O)Nc1n[nH]c2ncc(-c3cccnc3)cc12`, the Activity in assay [1] is 82%; in assay [2], 91%; in assay [3], 97%; in assay [4], 88%; in [5], 73%; in [6], 71%. The Activity in assay [7] was 88%; in [8], 31%; in assay [9] it was 94%; in assay [10], 70%; in assay [11] it was 94%; in assay [12], 81%. The Activity in assay [13] is 108%; in assay [14], 91%.
